Assay results reported in PMC6631462, “Quaternary Ammonium Leucine-Based Surfactants: The Effect of a Benzyl Group on Physicochemical Properties and Antimicrobial Activity” (Pharmaceutics, 2019).
Where “and” joins values, the source holds several entries; their conditions need not be identical. Equal values may be shown once. Read-outs that look alike come from different tables or passages of the source.

Tests used:
Caco-2 cells [1] = experiment: LDH release assay on Caco-2 cells; assay type: cell-based; conditions: Caco-2, concentration causing 50% LDH release, mean ± SD
Experimental: (§1) Colorectal-carcinoma-derived epithelial Caco-2 cells (European Collection of Cell Cultures) and airway epithelial Calu-3 cells (American Type Culture Collection; ATCC) were cultured in DMEM supplemented with 10% of FBS and 1% of an antibiotic–antimycotic mixture. Erythrocytes were collected from mice blood. The cytotoxicity of the N-benzyl quaternary ammonium surfactants derived from leucine in comparison to the commercial BAC was studied by performing two cytotoxicity assays (MTS and LDH as indicators of metabolic activity and membrane integrity, respectively) and by a haemolytic assay. The assays were conducted as reported in our previous publications. EC50 values from the MTS assay (concentration of surfactant that causes 50% cell death) and the LDH assay (concentration of surfactants that causes 50% LDH release from cells), as well as HC50 values from the haemolytic assay (concentration of surfactants that causes 50% haemoglobin release from erythrocytes) were calculated using a nonlinear regression model (Prism version 5.0, GraphPad Inc., San Diego, CA, USA) as follows:(3) Y=BOTTOM+Top−Bottom/1+10^(LogEC50−x) Hill Slope where Top and Bottom are plateaux in the units of the Y axis.

Calu-3 cells [2] = experiment: MTS cytotoxicity assay on Calu-3 cells; assay type: cell-based; conditions: Calu-3, concentration causing 50% reduction of viable cells, mean ± SD
Experimental: as §1

[3] = Surface tension measurements (De Nouy ring tensiometry); assay type: physicochemical; conditions: for 10^6 Γmax (surface excess concentration): Gibbs equation from tensiometry; for 10^6 Γmax (surface excess concentration) / CMC / γCMC (surface tension at CMC): 25 °C; for 10^6 Γmax (surface excess concentration) / Amin (area per molecule at water–air interface): mean ± SD; for Amin (area per molecule at water–air interface): derived from Γmax; for CMC / γCMC (surface tension at CMC): ultrapure water, tensiometry, mean ± SD of three replicates
Experimental: Different concentrations for each surfactant were prepared by dissolving the compounds in ultrapure water. Their ability to decrease air–water surface tension was studied at 25 °C using a DCA-100 tensiometer (First Ten Angstrom, Portsmouth, VA, USA) according to the De Nouy ring method. Each recorded surface tension value was the mean of three consecutive measurements. The ‘breakpoint’ of the plot of surface tension versus concentration of surfactant was used to calculate the critical micelle concentration (CMC, i.e., the minimum concentration at which surfactants aggregate to form micelles) and the surface tension at CMC (γCMC). The “breakpoint” is the point of intersection of the two lines fitting the experimental data by a linear regression model (Prism version 5.0, GraphPad Inc., San Diego, CA, USA). Tensiometric measurements allowed for the calculation of an additional two parameters related to the surface behaviour of surfactants. The first is the ‘surface excess concentration’, Γmax, which is a measure of how many surfactant molecules are adsorbed at the air–water interface, which was calculated using the Gibbs equation:(1) Γmax=1/2.303 nRT (δγ/δlogC) where R is the gas constant (8.314 J/mol K); T is the absolute temperature (K); n is equal to 1 for single chain ionic surfactants displaying only one ionisable group; and dγ/d log C can be calculated from the slope of the straight section before the CMC in the plot of surface tension versus concentration of the surfactant.
The other parameter is the area occupied by a single molecule of surfactant at the water–air interface (As), and is derived from Γmax through the equation:(2) Amin= 10^18/NΓmax.
All analyses were performed in triplicate.

[4] = system: Candida albicans ATCC 24433; experiment: Antimicrobial assay, MIC determination (adapted to yeast); assay type: cell-based; conditions: for MIC: C. albicans; for Selectivity index EC50/MIC: MIC C. albicans
Experimental: (§2) Bacterial strains were cultured overnight at 35–36 °C in blood agar plates. Minimum inhibitory concentrations (MICs) were determined according to previous reports and following protocols defined by the European Committee on Antimicrobial Susceptibility Testing (EUCAST). MICs against Candida albicans were determined using a similar protocol with some adaptations to the yeast growth and requirements. All tests were done in triplicate. [table]

Caco-2 cells [5] = experiment: MTS cytotoxicity assay on Caco-2 cells; assay type: cell-based; conditions: Caco-2, concentration causing 50% reduction of viable cells, mean ± SD
Experimental: as §1

[6] = system: Enterococcus faecalis ATCC 29212; experiment: Antimicrobial assay, MIC determination (EUCAST); assay type: cell-based; conditions: for Selectivity index EC50/MIC: MIC E. faecalis; for MIC: E. faecalis
Experimental: as §2

[7] = system: Escherichia coli ATCC 25922; experiment: Antimicrobial assay, MIC determination (EUCAST); assay type: cell-based; conditions: for Selectivity index EC50/MIC: MIC E. coli; for MIC: E. coli
Experimental: as §2

[8] = system: Staphylococcus aureus ATCC 25923; experiment: Antimicrobial assay, MIC determination (EUCAST); assay type: cell-based; conditions: for Selectivity index EC50/MIC: MIC S. aureus; for MIC: S. aureus
Experimental: as §2

[9] = system: Pseudomonas aeruginosa ATCC 27853; experiment: Antimicrobial assay, MIC determination (EUCAST); assay type: cell-based; conditions: for Selectivity index EC50/MIC: MIC P. aeruginosa; for MIC: P. aeruginosa
Experimental: as §2

Calu-3 cells [10] = experiment: LDH release assay on Calu-3 cells; assay type: cell-based; conditions: Calu-3, concentration causing 50% LDH release, mean ± SD
Experimental: as §1

erythrocytes = experiment: Haemolytic assay; assay type: cell-based, mice; conditions: concentration causing 50% haemoglobin release from erythrocytes, mean ± SD
Experimental: as §1

[11] = Candida albicans, ATCC24433, read-out: MIC
[12] = Enterococcus faecalis, ATCC29212, read-out: MIC
[13] = Escherichia coli, ATCC25922, read-out: MIC
[14] = Staphylococcus aureus, ATCC25923, read-out: MIC
[15] = Pseudomonas aeruginosa, ATCC27853, read-out: MIC

Compound | EC50 (Caco-2 cells [1]; Homo sapiens) [µM] | EC50 (Calu-3 cells [2]; Homo sapiens) [µM] | 10^6 Γmax (surface excess concentration) [3] [mol/m^2] | Amin (area per molecule at water–air interface) [3] [A^2] | CMC [3] | γCMC (surface tension at CMC) [3] | MIC [4, 11] | Selectivity index EC50/MIC ([4]; EC50 from MTS assay on Caco-2) | Selectivity index EC50/MIC ([4]; EC50 from MTS assay on Calu-3) | EC50 (Caco-2 cells [5]; Homo sapiens) [µM] | Selectivity index EC50/MIC ([6]; EC50 from MTS assay on Calu-3) | MIC [6, 12] | Selectivity index EC50/MIC ([7]; EC50 from MTS assay on Caco-2) | Selectivity index EC50/MIC ([7]; EC50 from MTS assay on Calu-3) | MIC [7, 13] | Selectivity index EC50/MIC ([8]; EC50 from MTS assay on Caco-2) | Selectivity index EC50/MIC ([8]; EC50 from MTS assay on Calu-3) | Selectivity index EC50/MIC ([9]; EC50 from MTS assay on Caco-2) | Selectivity index EC50/MIC ([9]; EC50 from MTS assay on Calu-3) | Haemolysis HC50 (erythrocytes) [mM] | further results
CCCCCCCCCCOC(=O)C(CC(C)C)[N+](C)(C)Cc1ccccc1 (stereo not shown) [C10 LEU BENZ] | 158 ± 15 | 117 ± 5 | 6.76 ± 0.22 | 24.09 ± 1.45 | 1.88 ± 0.16 mM | around 30 mN/m and 31.75 ± 0.09 mN/m | 124 µM and 64 µg/mL | 1.3 | 0.9 | 160 ± 7 | 15.2 | 4 µg/mL and 7.7 µM | 1.3 | 0.9 | 64 µg/mL and 124 µM | 42.1 | 30.8 | 0.6 | 0.5 | 0.148 ± 0.018 | MIC [8, 14]: 2 µg/mL and 3.8 µM; MIC [9, 15]: > 128 µg/mL and > 248 µM; EC50 (Calu-3 cells [10]; Homo sapiens): 187 ± 24 µM
CCCCCCCCCCCCOC(=O)C(CC(C)C)[N+](C)(C)Cc1ccccc1 (stereo not shown) [C12 LEU BENZ] | 19 ± 2 | 11 ± 2 | 6.10 ± 0.24 | 27.27 ± 1.34 | around 1 mM and 0.92 ± 0.11 mM | ~40 mN/m and 40.38 ± 0.13 mN/m | 29.3 µM and 16 µg/mL | 0.5 | 0.4 | 16 ± 3 | 1.0 | 4 µg/mL to 8 µg/mL and 10.6 µM | 0.3 | 0.2 | 32 µg/mL and 58.6 µM | 1.5 | 1.0 | 0.07 | 0.05 | 0.054 ± 0.004 | Selectivity index EC50/MIC ([6]; EC50 from MTS assay on Caco-2): 1.5; MIC [8, 14]: 4 µg/mL to 8 µg/mL and 10.6 µM; MIC [9, 15]: 128 µg/mL and 235 µM; EC50 (Calu-3 cells [10]; Homo sapiens): 19 ± 3 µM
CCCCCCCCCCCCCCOC(=O)C(CC(C)C)[N+](C)(C)Cc1ccccc1 (stereo not shown) [C14 LEU BENZ] | 12 ± 2 | 14 ± 2 | 7.39 ± 0.31 | 22.46 ± 1.11 | 0.12 ± 0.08 mM | ~40 mN/m and 40.35 ± 0.11 mN/m | 13.9 µM and 8 µg/mL | 0.9 | 1.0 | 13 ± 2 | 4.0 | 2 µg/mL and 3.5 µM | 0.5 | 0.5 | 16 µg/mL and 27.9 µM | 5 | 5.4 | 0.06 | 0.06 | 0.027 ± 0.006 | Selectivity index EC50/MIC ([6]; EC50 from MTS assay on Caco-2): 3.7; MIC [8, 14]: 1 µg/mL to 2 µg/mL and 2.6 µM; MIC [9, 15]: 128 µg/mL and 223 µM; EC50 (Calu-3 cells [10]; Homo sapiens): 14 ± 2 µM
Benzalkonium chloride [BAC, reference compound] |  |  | 5.35 ± 0.27 | 31.08 ± 1.60 | around 1 mM and 1.02 ± 0.06 mM | around 30 mN/m and 31.16 ± 0.05 mN/m |  | 2.9 | 1.9 |  | 7.7 |  | 2.9 | 1.9 |  | 11.5 | 7.7 | 0.4 | 0.2 | 0.064 ± 0.004 | EC50 (Caco-2 cells [1]): 48 ± 4 µM; EC50 (Calu-3 cells [2]): 22 ± 5 µM; MIC [4]: 4 mg/L; MIC ([4]; read-out: MIC): 11.5 µM; EC50 (Caco-2 cells [5]): 33 ± 1 µM; MIC [6]: 1 mg/L; MIC ([6]; read-out: MIC): 2.9 µM; Selectivity index EC50/MIC ([6]; EC50 from MTS assay on Caco-2): 11.5; MIC [7]: 4 mg/L; MIC ([7]; read-out: MIC): 11.5 µM; MIC [8]: 1 mg/L; MIC ([8]; read-out: MIC): 2.9 µM; MIC [9]: 32 mg/L; MIC ([9]; read-out: MIC): 91.8 µM; EC50 (Calu-3 cells [10]): 29 ± 5 µM
